According to patent publication US11696913B2, “Prolonged ectoparasite-controlling agent for animal” (MITSUI CHEMICALS AGRO, INC., priority 2017, dated 2023):
Like-named read-outs stand apart in the source and are kept apart here.

Legend:
Ctenocephalides felis [1] = assay: Systemic treatment in-vivo test with cat flea on rats; details: Ctenocephalides felis, ip, intraperitoneal injection
Procedure, shortened: (§1)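 Rats dosed intraperitoneally per body weight in glycerol formal (up to 25% NMP for poorly soluble compounds). 30 D. variabilis nymphs released on treatment day and weekly, 30 C. felis fleas 24 h later; live attached engorged ticks counted at 48 h (±4 h), live fleas at 24 h, efficacy versus placebo group.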

Ctenocephalides felis [2] = assay: Ctenocephalides felis in-vitro feeding test with fleas (CTECFE oral); details: 48 hours, read-out: insecticidal feeding activity; for pest or weed control at 0.0064 ppm: dose 0.0064 ppm in citrated cattle blood; for pest or weed control at 0.032 ppm: dose 0.032 ppm in citrated cattle blood; for pest or weed control at 0.16 ppm: dose 0.16 ppm in citrated cattle blood; for pest or weed control at 0.8 ppm: dose 0.8 ppm in citrated cattle blood; for pest or weed control at 4 ppm: dose 4 ppm in citrated cattle blood
Procedure, shortened: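 About 20 unfed adult cat fleas fed through parafilm on citrated cattle blood containing test substance (DMSO solution diluted in blood), held at about 37° C. Kill rate scored after 48 hours, 100% meaning all fleas dead.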

[3] = tested on: Rhipicephalus (Boophilus) microplus; assay: In vitro injection test with Rhipicephalus (Boophilus) microplus (BOOPMI Inj); details: 168 h, laid fertile eggs after 7 days, read-out: acaricidal activity; for pest or weed control at 32 ng: dose 0.032 μg/animal injected; for pest or weed control at 0.00016 mg: dose 0.16 μg/animal injected; for pest or weed control at 0.0008 mg: dose 0.8 μg/animal injected
Procedure, shortened: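 Test substance in DMSO; 1 μl injected into abdomen of each of 5 engorged adult female ticks, then held at 28° C., 85% rel. hum. Activity scored after 7 days from laying of fertile eggs: 100% = no eggs or all infertile, 0% = all eggs fertile.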

Rhipicephalus sanguineus = assay: In vitro contact test with adult hard ticks (Rhipicephalus sanguineus); details: read-out: acaricidal activity; for pest or weed control at 0.2 µg/cm2, 0.2 µg/cm2: dose 0.2 μg/cm^2, 48 h; for pest or weed control at 1 µg/cm2, 1 µg/cm2: dose 1 μg/cm^2, 48 h
Procedure, shortened: (§2)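 Adult R. sanguineus, I. ricinus, D. variabilis or A. americanum nymphs exposed in glass vials coated with compound from acetone (900 ppm gives 5 μg/cm^2). Held 48 h at room temperature (R. sanguineus) or 21° C., 85% rel. hum.; then heated at 45-50° C. ≤5 min, motionless or uncoordinated ticks scored dead/moribund.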

Dermacentor variabilis [4] = assay: Systemic treatment in-vivo test with American dog tick nymph on rats; details: Dermacentor variabilis, ip, intraperitoneal injection, 10 mg/kg
Procedure, shortened: as §1

Dermacentor variabilis [5] = assay: In vitro contact test with adult hard ticks (Dermacentor variabilis); details: read-out: acaricidal activity; for pest or weed control at 0.2 µg/cm2, 0.2 µg/cm2: dose 0.2 μg/cm^2, 48 h; for pest or weed control at 1 µg/cm2, 1 µg/cm2: dose 1 μg/cm^2, 48 h
Procedure, shortened: as §2

Ctenocephalides felis [6] = assay: In vitro contact test with fleas; details: read-out: insecticidal activity; for pest or weed control at 0.04 µg/cm2, 0.04 µg/cm2: dose 0.04 μg/cm^2, dead or moribund fleas after 48 h; for pest or weed control at 0.2 µg/cm2, 0.2 µg/cm2: dose 0.2 μg/cm^2, dead or moribund fleas after 48 h; for pest or weed control at 1 µg/cm2, 1 µg/cm2: dose 1 μg/cm^2, dead or moribund fleas after 48 h
Procedure, shortened: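 Adult male and female cat fleas (5-10 per tube) placed in glass tubes coated with compound from acetone solution (900 ppm gives 5 μg/cm^2), kept at room temperature and ambient humidity. After 48 h, motionless or uncoordinated fleas scored dead or moribund; activity expressed as % dead or moribund.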

[7] = SD 2, read-out: Geometric mean percent reduction in live flea (Ctenocephalides felis) counts compared to untreated control rats
[8] = SD 9, read-out: Geometric mean percent reduction in live flea (Ctenocephalides felis) counts compared to untreated control rats
[9] = SD 16, read-out: Geometric mean percent reduction in live flea (Ctenocephalides felis) counts compared to untreated control rats
[10] = SD 23, read-out: Geometric mean percent reduction in live flea (Ctenocephalides felis) counts compared to untreated control rats
[11] = SD 2, read-out: Geometric mean percent reduction in live tick (Dermacentor variabilis) counts compared to untreated control rats
[12] = SD 9, read-out: Geometric mean percent reduction in live tick (Dermacentor variabilis) counts compared to untreated control rats
[13] = SD 16, read-out: Geometric mean percent reduction in live tick (Dermacentor variabilis) counts compared to untreated control rats
[14] = SD 23, read-out: Geometric mean percent reduction in live tick (Dermacentor variabilis) counts compared to untreated control rats

Structure (SMILES) | inhibition in vivo at 10 mg/kg (Ctenocephalides felis [1]; [7]) [%] | inhibition in vivo at 10 mg/kg (Ctenocephalides felis [1]; [8]) [%] | inhibition in vivo at 10 mg/kg (Ctenocephalides felis [1]; [9]) [%] | inhibition in vivo at 10 mg/kg (Ctenocephalides felis [1]; [10]) [%] | pest or weed control at 0.0064 ppm (Ctenocephalides felis [2]) [%] | pest or weed control at 0.032 ppm (Ctenocephalides felis [2]) [%] | pest or weed control at 0.16 ppm (Ctenocephalides felis [2]) [%] | pest or weed control at 0.8 ppm (Ctenocephalides felis [2]) [%] | pest or weed control at 4 ppm (Ctenocephalides felis [2]) [%] | pest or weed control at 32 ng [3] [%] | pest or weed control at 0.00016 mg [3] [%] | pest or weed control at 0.0008 mg [3] [%] | pest or weed control at 0.2 µg/cm2, 0.2 µg/cm2 (Rhipicephalus sanguineus) [%] | pest or weed control at 1 µg/cm2, 1 µg/cm2 (Rhipicephalus sanguineus) [%] | inhibition in vivo at 10 mg/kg (Dermacentor variabilis [4]; [11]) [%] | inhibition in vivo at 10 mg/kg (Dermacentor variabilis [4]; [12]) [%] | inhibition in vivo at 10 mg/kg (Dermacentor variabilis [4]; [13]) [%] | inhibition in vivo at 10 mg/kg (Dermacentor variabilis [4]; [14]) [%] | pest or weed control at 0.2 µg/cm2, 0.2 µg/cm2 (Dermacentor variabilis [5]) [%] | pest or weed control at 1 µg/cm2, 1 µg/cm2 (Dermacentor variabilis [5]) [%] | further results
CN(C(=O)c1ccc(F)cc1)c1cccc(C(=O)Nc2c(I)cc(C(F)(C(F)(F)F)C(F)(F)C(F)(F)F)cc2OC(F)F)c1F (stereo not drawn) [Compound 103] | 100 | 92 | 70 | 20 | 95 | 95 | 95 | 95 | 95 | 100 | 100 | 100 | 90 | 90 | 100 | 100 | 74 | 43 | 90 | 90 | pest or weed control at 6.4 ng ([3]; dose 0.0064 μg/animal injected): 100%; pest or weed control at 0.04 µg/cm2, 0.04 µg/cm2 (Dermacentor variabilis [5]; dose 0.04 μg/cm^2, 48 h): 90%; pest or weed control at 0.04 µg/cm2, 0.04 µg/cm2 (Ctenocephalides felis [6]): 95%; pest or weed control at 0.2 µg/cm2, 0.2 µg/cm2 (Ctenocephalides felis [6]): 95%; pest or weed control at 1 µg/cm2, 1 µg/cm2 (Ctenocephalides felis [6]): 95%
CN(C(=O)c1ccc(F)nc1)c1cccc(C(=O)Nc2c(I)cc(C(F)(C(F)(F)F)C(F)(F)F)cc2C(F)(F)F)c1F [Compound 115, 6-fluoro-N-(2-fluoro-3-((2-iodo-4-(perfluoropropan-2-yl)-6-(trifluoromethyl)phenyl)carbamoyl)phenyl)-N-methylnicotinamide] | 100 | 100 | 99 | 47 | 95 | 95 | 95 | 95 | 95 | 100 | 100 | 100 | 90 | 90 | 100 | 99 | 86 | 46 | 90 | 90 | inhibition in vivo at 2 mg/kg (Ctenocephalides felis [1]; [7]): 100%; inhibition in vivo at 2 mg/kg (Ctenocephalides felis [1]; [8]): 98%; inhibition in vivo at 2 mg/kg (Ctenocephalides felis [1]; [9]): 73%; inhibition in vivo at 10 mg/kg (Ctenocephalides felis [1]; SD 30, read-out: Geometric mean percent reduction in live flea (Ctenocephalides felis) counts compared to untreated control rats): 8%; pest or weed control at 0.04 µg/cm2, 0.04 µg/cm2 (Rhipicephalus sanguineus; dose 0.04 μg/cm^2, 48 h): 90%; inhibition in vivo at 10 mg/kg (Dermacentor variabilis [4]; SD 30, read-out: Geometric mean percent reduction in live tick (Dermacentor variabilis) counts compared to untreated control rats): 17%; pest or weed control at 0.04 µg/cm2, 0.04 µg/cm2 (Ctenocephalides felis [6]): 95%; pest or weed control at 0.2 µg/cm2, 0.2 µg/cm2 (Ctenocephalides felis [6]): 95%; pest or weed control at 1 µg/cm2, 1 µg/cm2 (Ctenocephalides felis [6]): 95%
